Measurements reported in patent US20210205329A1 (The University of North Carolina at Chapel Hill, priority 2018, published 2021).
Several values for one entry are separate records, joined by “and”; a condition that tells them apart may be missing. Identical values can stand only once.

Test system: innately activated TLR4 signal in P rat VTA
Experiment: TLR4 signaling in P rat VTA after systemic neurosteroid (immunoblot, MCP-1 ELISA)
Type: in vivo
Settings: 45 minutes
Experimental: Immunoblotting for whole VTA lysates was done as previously described (Carlson et al, 2013). Briefly, VTA micropunches (1 mm thick) were lysed with CelLytic MT (dialyzable mild detergent, bicine, and 150 mM NaCl; Sigma-Aldrich) and protease and phosphatase inhibitor cocktail according to the manufacturer's instructions. Total protein was determined by the BCA assay. The proteins (10 μg/lane) were resolved by NuPAGE™ 4-12% Bis-Tris Midi Protein Gel (Thermo Fisher, Waltham, Mass.) electrophoresis and transferred using the iBlot 2 Dry Blotting System (Thermo Fisher, Waltham, Mass.). Blots were then exposed to an antibody for β-actin for normalization. Proteins were detected with enhanced chemilumenescence (GE Healthcare, Amersham, UK). Membranes were exposed to film under non-saturating conditions. Densitometric analysis was conducted using NIH Image 1.57.
Animals. Selectively bred, but alcohol naïve Alcohol-preferring (P) rats (male, 3-4 months old; 250-550 g) (n=7-9/group) were obtained from the Alcohol Research Center, Indiana University School of Medicine, Animals were double housed in Plexiglas cages containing corn cob bedding and food and water was available ad libitum. The colony room was maintained on a normal 12 hr light-dark cycle (light onset at 0700 hr). Procedures followed National Institutes of Health Guidelines under UNC institutional Animal Care and Use Committee approved protocols at University of North Carolina School of Medicine. Rats were habituated to handling for 7 days prior to administration of 3α,5α-THP (15 mg/kg, IP), pregnenolone (75 mg/kg, IP), 3α,5α-THDOC (15 mg/kg, IP), or vehicle (45% w/v 2-hydroxypropyl-p-cyclodextrin) and returned to their home cage. Rats were sacrificed after 45 minutes and the brain was removed and frozen at −80° C. until VTA micropunches were collected from 1 mm cryostat brain sections. This time point was selected because 3α,5α-THP is rapidly metabolized in vivo (Purdy et al, 1990), but has behavioral and pharmacological activity at this time point (Crawley et al, 1986).
ELISA. Brain tissue micropunches were lysed with Cellyte MT and the extracts were assayed for protein content by the BCA procedure (Pierce) and for MCP-1 using the rat MCP-1 ELISA kit (Raybiotech—ERC-MCP-1-CL; Norcross, Ga., USA) or for fracktalkine using the rat fractalkine ELISA kit (Raybiotech—ERC-CX3CL1-CL; Norcross, Ga., USA) as per manufacturer's instructions.
Since the neurosteroids inhibited the TLR4 activation signal in cultured macrophage cells, experiments were conducted to determine whether this also occurs in the brain. Selectively bred P rats that have an innately activated TLR4 signal in the VTA (Liu J, et al. (2011). Proc Natl Acad Sci USA 108(11): 4465-4470), were administered 3α,5α-THP (15 mg/kg, IP) or pregnenolone (75 mg/kg, IP), sacrificed after 45 minutes and examined for TLR4 signaling using parallel measures. […] 3α,5α-THP administration reduced the levels of MCP-1 by 20±9% (p<0.05), TRAF6 by 19±3% (p<0.0001), and CRF by 28±9% (p<0.01), with no effect on TLR4 protein expression (FIG. 4A). Pregnenolone administration had no effect on TRAF6, CRF, or TLR4.

Row | SMILES | effect on TLR4 protein expression in VTA (15 mg/kg IP, P rats) | reduction of CRF levels in VTA (15 mg/kg IP, male P rats) | reduction of TRAF6 levels in VTA (15 mg/kg IP, male P rats) | reduction of MCP-1 levels in VTA (15 mg/kg IP, male P rats, ELISA) | effect on CRF in VTA (75 mg/kg IP, P rats) | effect on TLR4 in VTA (75 mg/kg IP, P rats) | effect on TRAF6 in VTA (75 mg/kg IP, P rats)
1 | CC(=O)[C@H]1CC[C@H]2[C@@H]3CC[C@H]4C[C@H](O)CC[C@]4(C)[C@H]3CC[C@]12C [3α,5α-THP, (3α,5α)3-hydroxypregnan-20-one] | no effect | 28±9% and ~30% | 19±3% and ~20% | 20±9% and ~20% | – | – | –
2 | CC(=O)[C@H]1CC[C@H]2[C@@H]3CC=C4C[C@@H](O)CC[C@]4(C)[C@H]3CC[C@]12C [pregnenolone] | – | – | – | – | no effect | no effect | no effect
